Measured values: patent publication US20070105879A1 (HALEX ISTAR INDUSTRIA FARMACEUTICA LTDA., priority 2003, published 2007)
Counter-ions that a name gives are not always drawn. Like-named read-outs stand apart in the source and are kept apart here.

What was measured:
[1] = cited from earlier work
[2] = sodium salt / reconstituted state-of-the-art solution, cited from earlier work
cytomegalovirus = details: drug derived from acyclovir, U.S. Pat. No. 4,355,032; cited from earlier work
[3] = pH and appearance of ganciclovir solutions; type: physicochemical; details: glucose solution, formulation tests
Source text: The earlier tests were tried with the 9-((1,3-dihydroxypropan-2-iloxy)methyl)-2-amine-1-purin-6(9H)-one molecule used for preparing the lyophilized product.
Stabilizing the molecule in this pH, allowed lowering hazards during manipulation, once the previous solution was too much alkaline (pH=11), and was too much irritating after its reconstitution being not possible to be in contact with the skin, mucous membranes and eyes. Using appropriate glasses and gloves were necessary when manipulating this substance.
Yes, but can cause irritation in the site of the injection due the elevate pH of the injectable solution (pH˜11). It also can be done by subcutaneous administration, but with the same local irritation risk.
Because the resulting solution is strongly alkaline (pH=11) and irritating after its reconstitution, one must avoid the contact with the skin, mucous membranes and the eyes. Using glasses and gloves are necessary when manipulating it.

Row | Structure (SMILES) | physically and chemically stable (time) ([1]; reconstituted with sterile water for injection, diluted with sodium chloride 0.9% in PVC bags, refrigeration at 5° C.) [days] | pH of solution ([2]; listed as sodium Ganciclovir, sodium salt) | pH of solution ([2]; sodium salt) | Stability (time) ([1]; room temperature, reconstituted inside its own vial) [h] | activity against cytomegalovirus, times greater (cytomegalovirus) [times] | appearance of solution [3] | pH of solution [2]
1 | Nc1nc(O)c2ncn(COC(CO)CO)c2n1 [Ganciclovir sodium salt, 9-((1,3-dihydroxypropan-2-iloxy)methyl)-2-amine-1H-purin-6(9H)-one sodium salt] | 14 | 11 | about 11 |  |  |  | 
2 | Nc1nc2c(ncn2COC(CO)CO)c(=O)[nH]1 [Ganciclovir, 9-((1,3-dihydroxypropan-2-iloxy)methyl)-2-amine-1H-purin-6(9H)-one] |  |  |  | 12 | 100 | yellowish and oxidized solution | 11
